From ChEMBL document CHEMBL1125453, “Side chain modified 5-deazafolate and 5-deazatetrahydrofolate analogues as mammalian folylpolyglutamate synthetase and glycinamide ribonucleotide formyltransferase inhibitors: synthesis and in vitro biological evaluation” (J Med Chem, 1992)

How the values were obtained:
Dihydrofolate reductase = molecular target: T1, Dihydrofolate reductase (Homo sapiens, UniProt P00374); assay: In vitro inhibition of human dihydrofolate reductase (DHFR)
T1 sequence (P00374 whole entry): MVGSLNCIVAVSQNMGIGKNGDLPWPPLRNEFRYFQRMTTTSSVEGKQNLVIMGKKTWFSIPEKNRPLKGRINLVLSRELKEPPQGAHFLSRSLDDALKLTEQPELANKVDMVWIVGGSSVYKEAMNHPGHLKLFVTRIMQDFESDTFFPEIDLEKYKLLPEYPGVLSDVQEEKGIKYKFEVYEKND

[1] = molecular target: T2, Folylpolyglutamate synthase, mitochondrial (Mus musculus, UniProt P48760); assay: In vitro inhibition of mouse liver Folyl-polyglutamate synthase
T2 sequence (P48760 whole entry): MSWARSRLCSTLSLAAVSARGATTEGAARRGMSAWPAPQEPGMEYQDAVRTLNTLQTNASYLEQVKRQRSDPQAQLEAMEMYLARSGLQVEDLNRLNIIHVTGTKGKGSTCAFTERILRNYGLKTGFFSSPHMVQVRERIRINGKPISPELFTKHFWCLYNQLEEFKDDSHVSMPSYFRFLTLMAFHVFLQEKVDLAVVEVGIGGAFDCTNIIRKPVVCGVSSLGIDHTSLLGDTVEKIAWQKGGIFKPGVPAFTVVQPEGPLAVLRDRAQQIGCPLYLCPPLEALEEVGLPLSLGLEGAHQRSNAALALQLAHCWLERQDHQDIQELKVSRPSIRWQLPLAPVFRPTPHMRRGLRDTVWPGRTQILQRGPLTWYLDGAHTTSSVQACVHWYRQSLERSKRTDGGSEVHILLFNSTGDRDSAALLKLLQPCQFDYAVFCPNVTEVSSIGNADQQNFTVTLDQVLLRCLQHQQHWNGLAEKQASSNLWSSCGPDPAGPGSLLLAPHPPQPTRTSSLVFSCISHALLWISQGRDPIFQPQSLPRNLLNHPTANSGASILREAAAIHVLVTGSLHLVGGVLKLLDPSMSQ

Thymidylate synthase = Thymidylate synthase (Homo sapiens, UniProt P04818); assay: In vitro inhibition of human thymidylate synthase (TS)
[2] = molecular target: T3, Trifunctional purine biosynthetic protein adenosine-3 (Mus musculus, UniProt Q64737); assay: In vitro inhibition of mouse GAR transformylase
T3 sequence (Q64737 whole entry): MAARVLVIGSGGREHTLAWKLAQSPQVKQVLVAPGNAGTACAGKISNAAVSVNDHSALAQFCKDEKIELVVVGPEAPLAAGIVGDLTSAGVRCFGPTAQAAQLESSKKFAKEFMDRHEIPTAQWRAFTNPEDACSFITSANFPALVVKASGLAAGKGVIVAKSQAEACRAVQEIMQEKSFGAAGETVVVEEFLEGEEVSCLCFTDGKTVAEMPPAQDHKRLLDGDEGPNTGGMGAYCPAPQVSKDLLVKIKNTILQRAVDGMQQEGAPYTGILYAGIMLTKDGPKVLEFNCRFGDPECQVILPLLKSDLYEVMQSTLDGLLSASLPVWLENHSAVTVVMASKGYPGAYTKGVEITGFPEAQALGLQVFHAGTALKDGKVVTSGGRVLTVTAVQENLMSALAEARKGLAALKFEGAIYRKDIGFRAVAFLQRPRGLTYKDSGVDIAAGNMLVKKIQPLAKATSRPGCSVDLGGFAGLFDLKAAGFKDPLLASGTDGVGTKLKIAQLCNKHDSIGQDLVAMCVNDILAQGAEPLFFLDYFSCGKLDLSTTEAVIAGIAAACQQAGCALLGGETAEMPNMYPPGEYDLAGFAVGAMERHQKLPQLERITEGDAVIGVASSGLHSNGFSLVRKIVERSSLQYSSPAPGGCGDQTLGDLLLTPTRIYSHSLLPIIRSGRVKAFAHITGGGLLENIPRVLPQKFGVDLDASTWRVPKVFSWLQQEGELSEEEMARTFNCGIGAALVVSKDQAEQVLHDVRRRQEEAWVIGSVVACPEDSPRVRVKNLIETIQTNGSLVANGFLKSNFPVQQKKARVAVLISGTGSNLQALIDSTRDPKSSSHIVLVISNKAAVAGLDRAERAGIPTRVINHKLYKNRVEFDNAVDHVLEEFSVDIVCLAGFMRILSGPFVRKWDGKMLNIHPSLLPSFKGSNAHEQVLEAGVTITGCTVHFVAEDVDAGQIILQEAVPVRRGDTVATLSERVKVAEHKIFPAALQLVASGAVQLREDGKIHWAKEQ

[3] = molecular target: T3, Trifunctional purine biosynthetic protein adenosine-3; assay: In vitro inhibition of Glycinamide ribonucleotide formyltransferase from L1210 murine leukemia cells

Chain of Thymidylate synthase (P04818 whole entry): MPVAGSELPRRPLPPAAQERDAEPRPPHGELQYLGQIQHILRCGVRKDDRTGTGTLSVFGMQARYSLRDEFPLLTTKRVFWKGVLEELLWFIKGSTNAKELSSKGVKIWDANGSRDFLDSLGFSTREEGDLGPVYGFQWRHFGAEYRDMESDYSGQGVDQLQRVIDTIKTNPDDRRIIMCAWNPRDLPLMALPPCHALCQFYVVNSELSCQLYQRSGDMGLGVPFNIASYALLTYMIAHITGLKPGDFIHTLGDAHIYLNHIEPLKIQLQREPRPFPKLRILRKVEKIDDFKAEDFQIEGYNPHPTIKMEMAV

Structure (SMILES)	IC50 (Thymidylate synthase)	Ki [2]	IC50 (Dihydrofolate reductase)	Ki [1]	Ki [3]
CCOP(=O)(O)CCC(NC(=O)c1ccc(NCC2CNc3nc(N)nc(O)c3C2)cc1)C(=O)O (configuration not stated)	> 5000 µM	–	950 µM	115 µM	–
Nc1nc(O)c2c(n1)CCC(CNc1ccc(C(=O)NC(CCC(=O)O)C(=O)O)cc1)C2 (configuration not stated)	–	0.065 µM	–	–	–
CCCN(Cc1ccc2nc(N)nc(O)c2c1)c1ccc(C(=O)NC(CCC(=O)O)C(=O)O)cc1 (configuration not stated)	0.068 µM	–	–	–	–
Nc1nc(O)c2c(n1)NCC(CNc1ccc(C(=O)NC(CCS(=O)(=O)O)C(=O)O)cc1)C2 (configuration not stated)	2100 µM	–	12 µM	22 µM	0.19 µM
Nc1nc(O)c2c(n1)NCC(CNc1ccc(C(=O)NC(CCP(=O)(O)O)C(=O)O)cc1)C2 (configuration not stated)	4200 µM	–	220 µM	3.2 µM	0.047 µM

Now from value to compound, other results behind:

IC50 (Thymidylate synthase)	Ki [2]	Structure (SMILES)	IC50 (Dihydrofolate reductase)	Ki [1]	Ki [3]
300 µM	–	Nc1nc2ncc(CNc3ccc(C(=O)NC(CCP(=O)(O)O)C(=O)O)cc3)cc2c(=O)[nH]1 (configuration not stated)	4.7 µM	9 µM	–
100 µM	–	CCOP(=O)(O)CCC(NC(=O)c1ccc(NCc2cnc3nc(N)[nH]c(=O)c3c2)cc1)C(=O)O (configuration not stated)	1.3 µM	2000 µM	–
55 µM	–	Nc1nc2ncc(CNc3ccc(C(=O)NC(CCS(=O)(=O)O)C(=O)O)cc3)cc2c(=O)[nH]1 (configuration not stated)	0.4 µM	570 µM	–
